Results reported in patent US8735431B2, “Active compound combinations having insecticidal properties” (priority 2003, dated 2014).

Test system: Heliothis armigera
Test: Heliothis armigera test (soybean shoots dipped)
Type: in vivo
Conditions: 0.00128 ppm, 6 d
Method: (§1) To produce a suitable preparation of active compound, 1 part by weight of active compound is mixed with the stated amounts of solvent and emulsifier, and the concentrate is diluted with emulsifier-containing water to the desired concentration.
Soybean shoots (Glycine max) are treated by being dipped into the preparation of active compound of the desired concentration and are populated with caterpillars of the cotton bollworm (Heliothis armigera) while the leaves are still moist.
(§2) After the desired period of time, the kill in % is determined. 100% means that all caterpillars have been killed; 0% means that none of the caterpillars have been killed. The determined kill ratios are entered into Colby's formula (see page 39).

| Compound | Kill rate in % after 6d found [%] |
| --- | --- |
| emamectin [(2-9) emamectin, reference compound] | 0 |

Same assay, conditions: 0.8 ppm, 6 d

| Compound | Kill rate in % after 6d found [%] |
| --- | --- |
| O=C(NC(=O)c1ccccc1Cl)Nc1ccc(OC(F)(F)F)cc1 [(2-5) triflumuron, triflumuron, reference compound] | 0 |

Same assay, conditions: 4 ppm, 3 d

| Compound | Kill rate in % after 3d found [%] |
| --- | --- |
| COc1cccc(C(=O)NN(C(=O)c2cc(C)cc(C)c2)C(C)(C)C)c1C [(2-10) methoxyfenozide, methoxyfenozide, reference compound] | 0 |

Test system: Plutella xylostella, normally sensitive strain
Test: Plutella xylostella test (normally sensitive strain)
Type: in vivo
Conditions: 20 ppm, 4 d
Method: as §1
Cabbage leaves (Brassica oleracea) are treated by being dipped into the preparation of active compound of the desired concentration and are populated with caterpillars of the diamondback moth (Plutella xylostella, normally sensitive strain) while the leaves are still moist.
as §2

| Compound | Kill rate in % after 4d found [%] |
| --- | --- |
| O=C(NC(=O)c1ccccc1Cl)Nc1ccc(OC(F)(F)F)cc1 [(2-5) triflumuron, triflumuron, reference compound] | 60 |

Test system: Plutella xylostella, resistant strain
Test: Plutella xylostella test (resistant strain)
Type: in vivo
Conditions: 0.00128 ppm, 6 d
Method: as §1
Cabbage leaves (Brassica oleracea) are treated by being dipped into the preparation of active compound of the desired concentration and are populated with caterpillars of the diamondback moth (Plutella xylostella, resistant strain) while the leaves are still moist.
as §2

| Compound | Kill rate in % after 6d found [%] |
| --- | --- |
| emamectin [(2-9) emamectin, reference compound] | 40 |

Test system: Spodoptera exigua
Test: Spodoptera exigua test (cabbage leaves dipped)
Type: in vivo
Conditions: 0.8 ppm
Method: as §1
Cabbage leaves (Brassica oleracea) are treated by being dipped into the preparation of active compound of the desired concentration and are populated with caterpillars of the beet army worm (Spodoptera exigua) while the leaves are still moist.
as §2

| Compound | Kill rate in % after 6d found [%] |
| --- | --- |
| O=C(NC(=O)c1c(F)cccc1F)Nc1ccc(Oc2ccc(C(F)(F)F)cc2Cl)cc1F [(2-22) flufenoxuron, flufenoxuron, reference compound] | 10 |

Test system: not given
Test: not given
Conditions: not given

| Compound | melting point [°C] |
| --- | --- |
| Cc1cc(Cl)cc(C(=O)NC(C)C)c1NC(=O)c1cc(OCC(F)(F)F)nn1-c1ncccc1Cl | 217 to 218 |
| CC(C)NC(=O)c1cc(Cl)cc(Cl)c1NC(=O)c1cc(C(F)(F)F)nn1-c1ncccc1Cl | 200 to 201 |
| CC(C)NC(=O)c1cc(Cl)cc(Cl)c1NC(=O)c1cc(OCC(F)(F)F)nn1-c1ncccc1Cl | 232 to 235 |
| CC(C)NC(=O)c1cc(Cl)cc(Cl)c1NC(=O)c1cc(Cl)nn1-c1ncccc1Cl | 197 to 199 |
| CC(C)NC(=O)c1cc(Cl)cc(Cl)c1NC(=O)c1cc(Br)nn1-c1ncccc1Cl | 188 to 190 |
| CCNC(=O)c1cc(Cl)cc(C)c1NC(=O)c1cc(C(F)(F)F)nn1-c1ncccc1Cl | 163 to 164 |
| CCNC(=O)c1cc(Cl)cc(Cl)c1NC(=O)c1cc(C(F)(F)F)nn1-c1ncccc1Cl | 201 to 202 |
| CCNC(=O)c1cc(Cl)cc(Cl)c1NC(=O)c1cc(Cl)nn1-c1ncccc1Cl | 206 to 208 |
| CCNC(=O)c1cc(Cl)cc(Cl)c1NC(=O)c1cc(Br)nn1-c1ncccc1Cl | 214 to 215 |
| Cc1cc(Cl)cc(C(=O)NC(C)(C)C)c1NC(=O)c1cc(Cl)nn1-c1ncccc1Cl | 163 to 165 |
| CC(C)(C)NC(=O)c1cc(Cl)cc(Cl)c1NC(=O)c1cc(C(F)(F)F)nn1-c1ncccc1Cl | 170 to 172 |
| CC(C)(C)NC(=O)c1cc(Cl)cc(Cl)c1NC(=O)c1cc(Cl)nn1-c1ncccc1Cl | 172 to 173 |
| CC(C)(C)NC(=O)c1cc(Cl)cc(Cl)c1NC(=O)c1cc(Br)nn1-c1ncccc1Cl | 179 to 180 |
| CCNC(=O)c1cc(Br)cc(C)c1NC(=O)c1cc(C(F)(F)F)nn1-c1ncccc1Cl | 192 to 193 |
| Cc1cc(Br)cc(C(=O)NC(C)C)c1NC(=O)c1cc(C(F)(F)F)nn1-c1ncccc1Cl | 197 to 198 |
| Cc1cc(Br)cc(C(=O)NC(C)(C)C)c1NC(=O)c1cc(C(F)(F)F)nn1-c1ncccc1Cl | 247 to 248 |
| CNC(=O)c1cc(Br)cc(C)c1NC(=O)c1cc(Cl)nn1-c1ncccc1Cl | 140 to 141 |
| CCNC(=O)c1cc(Br)cc(C)c1NC(=O)c1cc(Cl)nn1-c1ncccc1Cl | 192 to 194 |
| Cc1cc(Br)cc(C(=O)NC(C)C)c1NC(=O)c1cc(Cl)nn1-c1ncccc1Cl | 152 to 153 |

| Compound | melting point [°C] |
| --- | --- |
| CNC(=O)c1cc(Br)cc(C)c1NC(=O)c1cc(Br)nn1-c1ncccc1Cl | 147 to 149 |
| Cc1cc(Br)cc(C(=O)NC(C)C)c1NC(=O)c1cc(Br)nn1-c1ncccc1Cl | 185 to 187 |
| Cc1cc(I)cc(C(=O)NC(C)C)c1NC(=O)c1cc(C(F)(F)F)nn1-c1ncccc1Cl | 188 to 189 |
| Cc1cc(I)cc(C(=O)NC(C)(C)C)c1NC(=O)c1cc(C(F)(F)F)nn1-c1ncccc1Cl | 242 to 243 |
| CCNC(=O)c1cc(I)cc(C)c1NC(=O)c1cc(Cl)nn1-c1ncccc1Cl | 196 to 197 |
| CNC(=O)c1cc(I)cc(C)c1NC(=O)c1cc(Br)nn1-c1ncccc1Cl | 229 to 230 |
| CC(C)(C)NC(=O)c1cc(Br)cc(Br)c1NC(=O)c1cc(C(F)(F)F)nn1-c1ncccc1Cl | 246 to 247 |
| CNC(=O)c1cc(Br)cc(Br)c1NC(=O)c1cc(Cl)nn1-c1ncccc1Cl | 188 to 190 |
| CCNC(=O)c1cc(Br)cc(Br)c1NC(=O)c1cc(Cl)nn1-c1ncccc1Cl | 192 to 194 |
| CC(C)NC(=O)c1cc(Br)cc(Br)c1NC(=O)c1cc(Cl)nn1-c1ncccc1Cl | 197 to 199 |
| CNC(=O)c1cc(Br)cc(Br)c1NC(=O)c1cc(Br)nn1-c1ncccc1Cl | 166 to 168 |
| CN(C)C(=O)c1cc(Br)cc(Br)c1NC(=O)c1cc(Cl)nn1-c1ncccc1Cl | 153 to 155 |
| CN(C)C(=O)c1cc(Cl)cc(Cl)c1NC(=O)c1cc(Cl)nn1-c1ncccc1Cl | 231 to 232 |
| CN(C)C(=O)c1cc(Br)cc(Br)c1NC(=O)c1cc(Br)nn1-c1ncccc1Cl | 189 to 190 |
| CN(C)C(=O)c1cc(Cl)cc(Cl)c1NC(=O)c1cc(Br)nn1-c1ncccc1Cl | 216 to 218 |
| CN(C)C(=O)c1cc(Cl)cc(Cl)c1NC(=O)c1cc(C(F)(F)F)nn1-c1ncccc1Cl | 225 to 227 |
| CN(C)C(=O)c1cc(Br)cc(Br)c1NC(=O)c1cc(C(F)(F)F)nn1-c1ncccc1Cl | 228 to 229 |
| CNC(=O)c1cc(Cl)cc(Cl)c1NC(=O)c1cc(Br)nn1-c1ncccc1Cl | 245 to 246 |

Other lines, results leading:

| melting point [°C] | Compound |
| --- | --- |
| 205 to 207 | CCNC(=O)c1cc(Cl)cc(C)c1NC(=O)c1cc(OCC(F)(F)F)nn1-c1ncccc1Cl |
| 199 to 200 | CCNC(=O)c1cc(Cl)cc(C)c1NC(=O)c1cc(Cl)nn1-c1ncccc1Cl |
| 207 to 208 | CNC(=O)c1cc(Cl)cc(C)c1NC(=O)c1cc(OCC(F)(F)F)nn1-c1ncccc1Cl |
| 194 to 195 | CCNC(=O)c1cc(Cl)cc(C)c1NC(=O)c1cc(Br)nn1-c1ncccc1Cl |
| 223 to 225 | Cc1cc(Cl)cc(C(=O)NC(C)(C)C)c1NC(=O)c1cc(C(F)(F)F)nn1-c1ncccc1Cl |
| 159 to 161 | Cc1cc(Cl)cc(C(=O)NC(C)(C)C)c1NC(=O)c1cc(Br)nn1-c1ncccc1Cl |
| 225 to 226 | CNC(=O)c1cc(Cl)cc(C)c1NC(=O)c1cc(Cl)nn1-c1ncccc1Cl |
| 222 to 223 | CNC(=O)c1cc(Br)cc(C)c1NC(=O)c1cc(C(F)(F)F)nn1-c1ncccc1Cl |
| 224 to 225 | Cc1cc(Br)cc(C(=O)NC(C)(C)C)c1NC(=O)c1cc(Cl)nn1-c1ncccc1Cl |
| 194 to 196 | CCNC(=O)c1cc(Br)cc(C)c1NC(=O)c1cc(Br)nn1-c1ncccc1Cl |
| 215 to 221 | Cc1cc(Br)cc(C(=O)NC(C)(C)C)c1NC(=O)c1cc(Br)nn1-c1ncccc1Cl |
| 199 to 200 | CNC(=O)c1cc(I)cc(C)c1NC(=O)c1cc(C(F)(F)F)nn1-c1ncccc1Cl |
| 199 to 200 | CCNC(=O)c1cc(I)cc(C)c1NC(=O)c1cc(C(F)(F)F)nn1-c1ncccc1Cl |
| 233 to 234 | CNC(=O)c1cc(I)cc(C)c1NC(=O)c1cc(Cl)nn1-c1ncccc1Cl |
| 189 to 190 | Cc1cc(I)cc(C(=O)NC(C)C)c1NC(=O)c1cc(Cl)nn1-c1ncccc1Cl |
| 228 to 229 | Cc1cc(I)cc(C(=O)NC(C)(C)C)c1NC(=O)c1cc(Cl)nn1-c1ncccc1Cl |
| 155 to 157 | CNC(=O)c1cc(Cl)cc(Cl)c1NC(=O)c1cc(C(F)(F)F)nn1-c1ncccc1Cl |
| 191 to 192 | Cc1cc(I)cc(C(=O)NC(C)C)c1NC(=O)c1cc(Br)nn1-c1ncccc1Cl |
| 162 to 163 | CNC(=O)c1cc(Br)cc(Br)c1NC(=O)c1cc(C(F)(F)F)nn1-c1ncccc1Cl |
| 188 to 189 | CCNC(=O)c1cc(Br)cc(Br)c1NC(=O)c1cc(C(F)(F)F)nn1-c1ncccc1Cl |
| 192 to 193 | CC(C)NC(=O)c1cc(Br)cc(Br)c1NC(=O)c1cc(C(F)(F)F)nn1-c1ncccc1Cl |
| 210 to 212 | CC(C)(C)NC(=O)c1cc(Br)cc(Br)c1NC(=O)c1cc(Cl)nn1-c1ncccc1Cl |
| 192 to 195 | CNC(=O)c1cc(Cl)cc(Cl)c1NC(=O)c1cc(OCC(F)(F)F)nn1-c1ncccc1Cl |
| 196 to 197 | CCNC(=O)c1cc(Br)cc(Br)c1NC(=O)c1cc(Br)nn1-c1ncccc1Cl |
| 162 to 163 | CC(C)NC(=O)c1cc(Br)cc(Br)c1NC(=O)c1cc(Br)nn1-c1ncccc1Cl |
| 194 to 196 | CC(C)(C)NC(=O)c1cc(Br)cc(Br)c1NC(=O)c1cc(Br)nn1-c1ncccc1Cl |
| 143 to 145 | CC(C)(C)NC(=O)c1cc(Br)cc(Cl)c1NC(=O)c1cc(C(F)(F)F)nn1-c1ncccc1Cl |
| 207 to 208 | Cc1cc(Br)cc(C(=O)N(C)C)c1NC(=O)c1cc(C(F)(F)F)nn1-c1ncccc1Cl |
| 205 to 206 | CNC(=O)c1cc(Cl)cc(Cl)c1NC(=O)c1cc(Cl)nn1-c1ncccc1Cl |
